Tests used:
Assay type in all cases: in vivo
Details in all cases: treatment dosage 320 g/ha
wild oat [1] = test: Test Example 4: weedkilling efficacy by foliar treatment; G: wild oat
How it was run: (§1)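 Seeds are spot-sown into sterilized diluvial soil and covered with about 1.5 cm of soil. After 14 days' greenhouse growth at 25 to 30° C, plants are sprayed on stems and leaves with diluted emulsion at the stated g/ha rate, then scored at 3 weeks.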

chickweed [2] = test: Test Example 4: weedkilling efficacy by foliar treatment; N: chickweed
How it was run: as §1

wild oat [3] = test: Test Example 3: weedkilling efficacy through soil treatment; G: wild oat
How it was run: (§2)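 Crop and weed responses were judged three weeks after a uniform surface spray of the water-diluted emulsion at the given g/ha rate. Seeds sat beneath about 1.5 cm of sterilized diluvial soil, and boxes stood in a greenhouse at 25 to 30° C.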

oval-leafed pondweed [4] = test: Test Example 2: weedkilling efficacy, growth period weed treatment in the submerged state; C: oval-leafed pondweed
How it was run: (§3)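 Barnyard grass, bulrush and oval-leafed pondweed sown in alluvial soil under 4 cm flooding, greenhouse 25 to 30° C. At 1-2 leaf stage, water-diluted emulsion applied to the water surface at stated g/ha dosages; effects scored 3 weeks later.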

redroot pigweed [5] = test: Test Example 4: weedkilling efficacy by foliar treatment; L: redroot pigweed
How it was run: as §1

beet [6] = test: Test Example 4: foliar treatment, effect on crop; f: beet
How it was run: as §1

barnyard grass [7] = test: Test Example 2: weedkilling efficacy, growth period weed treatment in the submerged state; A: barnyard grass
How it was run: as §3

soybean [8] = test: Test Example 3: soil treatment, effect on crop; d: soybean
How it was run: as §2

beet [9] = test: Test Example 3: soil treatment, effect on crop; f: beet
How it was run: as §2

black-grass [10] = test: Test Example 3: weedkilling efficacy through soil treatment; H: black-grass
How it was run: as §2

bulrush [11] = test: Test Example 2: weedkilling efficacy, growth period weed treatment in the submerged state; B: bulrush
How it was run: as §3

oval-leafed pondweed [12] = test: Test Example 1: weedkilling efficacy, preemergent weed treatment in the submerged state; C: oval-leafed pondweed
How it was run: (§4)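 Visual scores against set criteria were taken 3 weeks after treatment. Compounds, as diluted emulsions at specified g/ha, went onto the water surface of 4 cm-flooded alluvial soil pots on the day weeds were sown and 2.5-leaf rice was transplanted; greenhouse held 25–30 °C.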

bulrush [13] = test: Test Example 1: weedkilling efficacy, preemergent weed treatment in the submerged state; B: bulrush
How it was run: as §4

fig-leafed goosefoot [14] = test: Test Example 4: weedkilling efficacy by foliar treatment; M: fig-leafed goosefoot
How it was run: as §1

soybean [15] = test: Test Example 4: foliar treatment, effect on crop; d: soybean
How it was run: as §1

barnyard grass [16] = test: Test Example 1: weedkilling efficacy, preemergent weed treatment in the submerged state; A: barnyard grass
How it was run: as §4

chickweed [17] = test: Test Example 3: weedkilling efficacy through soil treatment; N: chickweed
How it was run: as §2

Italian ryegrass [18] = test: Test Example 4: weedkilling efficacy by foliar treatment; I: Italian ryegrass
How it was run: as §1

wheat [19] = test: Test Example 3: soil treatment, effect on crop; e: wheat
How it was run: as §2

catchweed [20] = test: Test Example 4: weedkilling efficacy by foliar treatment; O: catchweed
How it was run: as §1

directly sown rice [21] = test: Test Example 4: foliar treatment, effect on crop; b: directly sown rice
How it was run: as §1

Indian mallow [22] = test: Test Example 3: weedkilling efficacy through soil treatment; K: Indian mallow
How it was run: as §2

fig-leafed goosefoot [23] = test: Test Example 3: weedkilling efficacy through soil treatment; M: fig-leafed goosefoot
How it was run: as §2

green foxtail [24] = test: Test Example 4: weedkilling efficacy by foliar treatment; E: green foxtail
How it was run: as §1

transplanted rice = test: Test Example 1: preemergent weed treatment in the submerged state, effect on crop; a: transplanted rice
How it was run: as §4

directly sown rice [25] = test: Test Example 3: soil treatment, effect on crop; b: directly sown rice
How it was run: as §2

rapeseed [26] = test: Test Example 3: soil treatment, effect on crop; g: rapeseed
How it was run: as §2

green foxtail [27] = test: Test Example 3: weedkilling efficacy through soil treatment; E: green foxtail
How it was run: as §2

rapeseed [28] = test: Test Example 4: foliar treatment, effect on crop; g: rapeseed
How it was run: as §1

barnyard grass [29] = test: Test Example 3: weedkilling efficacy through soil treatment; F: barnyard grass
How it was run: as §2

corn [30] = test: Test Example 3: soil treatment, effect on crop; c: corn
How it was run: as §2

common wind-grass [31] = test: Test Example 3: weedkilling efficacy through soil treatment; J: common wind-grass
How it was run: as §2

crabgrass [32] = test: Test Example 4: weedkilling efficacy by foliar treatment; D: crabgrass
How it was run: as §1

corn [33] = test: Test Example 4: foliar treatment, effect on crop; c: corn
How it was run: as §1

Italian ryegrass [34] = test: Test Example 3: weedkilling efficacy through soil treatment; I: Italian ryegrass
How it was run: as §2

catchweed [35] = test: Test Example 3: weedkilling efficacy through soil treatment; O: catchweed
How it was run: as §2

wheat [36] = test: Test Example 4: foliar treatment, effect on crop; e: wheat
How it was run: as §1

crabgrass [37] = test: Test Example 3: weedkilling efficacy through soil treatment; D: crabgrass
How it was run: as §2

black-grass [38] = test: Test Example 4: weedkilling efficacy by foliar treatment; H: black-grass
How it was run: as §1

redroot pigweed [39] = test: Test Example 3: weedkilling efficacy through soil treatment; L: redroot pigweed
How it was run: as §2

barnyard grass [40] = test: Test Example 4: weedkilling efficacy by foliar treatment; F: barnyard grass
How it was run: as §1

common wind-grass [41] = test: Test Example 4: weedkilling efficacy by foliar treatment; J: common wind-grass
How it was run: as §1

Indian mallow [42] = test: Test Example 4: weedkilling efficacy by foliar treatment; K: Indian mallow
How it was run: as §1

birds-eye speedwell = test: Test Example 3: weedkilling efficacy through soil treatment; p: birds-eye speedwell
How it was run: as §2

What does the source list for `CC1=C(c2ccccc2)C(=O)N(C(C)(C)C(=O)Nc2cc(C)cc(Cl)n2)CO1` [B-2-43]?
G (wild oat) weedkilling efficacy grade (wild oat [1]): 3 (weed kill ratio 40% or more, less than 70%); N (chickweed) weedkilling efficacy grade (chickweed [2]): 3 (weed kill ratio 40% or more, less than 70%); G (wild oat) weedkilling efficacy grade (wild oat [3]): 5 (weed kill ratio 90% or more, (practically complete withering)); C (oval-leafed pondweed) weedkilling efficacy grade (oval-leafed pondweed [4]): 5 (weed kill ratio 90% or more, (practically complete withering)); L (redroot pigweed) weedkilling efficacy grade (redroot pigweed [5]): 3 (weed kill ratio 40% or more, less than 70%); f (beet) effect on crop grade (beet [6]): 3 (weed kill ratio 40% or more, less than 70%); A (barnyard grass) weedkilling efficacy grade (barnyard grass [7]): 5 (weed kill ratio 90% or more, (practically complete withering)); d (soybean) effect on crop grade (soybean [8]): 2 (weed kill ratio 20% or more, less than 40%); f (beet) effect on crop grade (beet [9]): 4 (weed kill ratio 70% or more, less than 90%); H (black-grass) weedkilling efficacy grade (black-grass [10]): 5 (weed kill ratio 90% or more, (practically complete withering)); B (bulrush) weedkilling efficacy grade (bulrush [11]): 5 (weed kill ratio 90% or more, (practically complete withering)); C (oval-leafed pondweed) weedkilling efficacy grade (oval-leafed pondweed [12]): 5 (weed kill ratio 90% or more, (practically complete withering)); B (bulrush) weedkilling efficacy grade (bulrush [13]): 5 (weed kill ratio 90% or more, (practically complete withering)); M (fig-leafed goosefoot) weedkilling efficacy grade (fig-leafed goosefoot [14]): 4 (weed kill ratio 70% or more, less than 90%); d (soybean) effect on crop grade (soybean [15]): 4 (weed kill ratio 70% or more, less than 90%); A (barnyard grass) weedkilling efficacy grade (barnyard grass [16]): 5 (weed kill ratio 90% or more, (practically complete withering)); N (chickweed) weedkilling efficacy grade (chickweed [17]): 4 (weed kill ratio 70% or more, less than 90%); I (Italian ryegrass) weedkilling efficacy grade (Italian ryegrass [18]): 5 (weed kill ratio 90% or more, (practically complete withering)); e (wheat) effect on crop grade (wheat [19]): 1 (weed kill ratio 5% or more, less than 20%); O (catchweed) weedkilling efficacy grade (catchweed [20]): 1 (weed kill ratio 5% or more, less than 20%); b (directly sown rice) effect on crop grade (directly sown rice [21]): 5 (weed kill ratio 90% or more, (practically complete withering)); K (Indian mallow) weedkilling efficacy grade (Indian mallow [22]): 0 (weed kill ratio 5% or less (practically no effect)); M (fig-leafed goosefoot) weedkilling efficacy grade (fig-leafed goosefoot [23]): 3 (weed kill ratio 40% or more, less than 70%); E (green foxtail) weedkilling efficacy grade (green foxtail [24]): 5 (weed kill ratio 90% or more, (practically complete withering)); a (transplanted rice) effect on crop grade (transplanted rice): 3 (weed kill ratio 40% or more, less than 70%); b (directly sown rice) effect on crop grade (directly sown rice [25]): 3 (weed kill ratio 40% or more, less than 70%); g (rapeseed) effect on crop grade (rapeseed [26]): 4 (weed kill ratio 70% or more, less than 90%); E (green foxtail) weedkilling efficacy grade (green foxtail [27]): 4 (weed kill ratio 70% or more, less than 90%); g (rapeseed) effect on crop grade (rapeseed [28]): 4 (weed kill ratio 70% or more, less than 90%); F (barnyard grass) weedkilling efficacy grade (barnyard grass [29]): 5 (weed kill ratio 90% or more, (practically complete withering)); c (corn) effect on crop grade (corn [30]): 0 (weed kill ratio 5% or less (practically no effect)); J (common wind-grass) weedkilling efficacy grade (common wind-grass [31]): 5 (weed kill ratio 90% or more, (practically complete withering)); D (crabgrass) weedkilling efficacy grade (crabgrass [32]): 5 (weed kill ratio 90% or more, (practically complete withering)); c (corn) effect on crop grade (corn [33]): 3 (weed kill ratio 40% or more, less than 70%); I (Italian ryegrass) weedkilling efficacy grade (Italian ryegrass [34]): 5 (weed kill ratio 90% or more, (practically complete withering)); O (catchweed) weedkilling efficacy grade (catchweed [35]): 4 (weed kill ratio 70% or more, less than 90%); e (wheat) effect on crop grade (wheat [36]): 0 (weed kill ratio 5% or less (practically no effect)); D (crabgrass) weedkilling efficacy grade (crabgrass [37]): 5 (weed kill ratio 90% or more, (practically complete withering)); H (black-grass) weedkilling efficacy grade (black-grass [38]): 5 (weed kill ratio 90% or more, (practically complete withering)); L (redroot pigweed) weedkilling efficacy grade (redroot pigweed [39]): 3 (weed kill ratio 40% or more, less than 70%); F (barnyard grass) weedkilling efficacy grade (barnyard grass [40]): 5 (weed kill ratio 90% or more, (practically complete withering)); J (common wind-grass) weedkilling efficacy grade (common wind-grass [41]): 5 (weed kill ratio 90% or more, (practically complete withering)); K (Indian mallow) weedkilling efficacy grade (Indian mallow [42]): 3 (weed kill ratio 40% or more, less than 70%); P (birds-eye speedwell) weedkilling efficacy grade (birds-eye speedwell): 5 (weed kill ratio 90% or more, (practically complete withering))

Reference: patent US9738634B2, “Heterocyclic amide compound and herbicide” (SYNGENTA PARTICIPATIONS AG, priority 2013, dated 2017)
